This note sets out measurements from patent US20120232070A1, “Use of Indole Derivatives as Nurr-1 Activators for the Application Thereof as a Medicament for the Treatment of Parkinson's Disease” (Laboratoires Fournier SA, priority 2009, published 2012).

Usually EC50 stands for the concentration that produces a half-maximal response. Lower therefore signals a more potent agent.

The target of assay [1] is hNurr1_RXRγFL (NURR1/RXRγ heterodimer) (Homo sapiens, UniProt P43354+P48443). In words: Transactivation assay in Cos-7 cells, NURR-1-Gal4 / RXRγ, luciferase reporter. Particulars: for Emax: COS-7, read-out: hNurr1_RXRγFL Eff (%), efficacy in % relative to the reference XCT0135908 at 2·10^−5 M (=100%); for EC50: Cos-7 cells, overnight incubation. The assay is classed as cell-based. Summed up: (§1)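 Efficiency is given as a percentage of the induction produced by 2·10^−5 M XCT0135908 (100%), measured from heterodimer baseline. Read-out was luciferase after overnight exposure to compounds (10^−4–3·10^−10 M final) in Cos-7 cells transfected with NURR-1-Gal4, RXRα or RXRγ, and a Gal4 luciferase reporter.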
In general terms: Reporter assays use an easily measured gene product as a stand-in for the process of interest.

The target of assay [2] is hNurr1_RXRαFL (NURR1/RXRα heterodimer) (Homo sapiens, UniProt P19793+P43354). Nature of the assay: Transactivation assay in Cos-7 cells, NURR-1-Gal4 / RXRα, luciferase reporter. The conditions noted are these: for Emax: COS-7, read-out: hNurr1_RXRαFL Eff (%), efficacy in % relative to the reference XCT0135908 at 2·10^−5 M (=100%); for EC50: Cos-7 cells, overnight incubation. The assay is classed as cell-based. The method, boiled down: as §1

The mark [3] stands for this setting: efficacy in % relative to the reference XCT0135908 at 2·10^−5 M (=100%).

Sequence of hNurr1_RXRαFL (NURR1/RXRα heterodimer) (P19793 whole entry, the tested form may be a part): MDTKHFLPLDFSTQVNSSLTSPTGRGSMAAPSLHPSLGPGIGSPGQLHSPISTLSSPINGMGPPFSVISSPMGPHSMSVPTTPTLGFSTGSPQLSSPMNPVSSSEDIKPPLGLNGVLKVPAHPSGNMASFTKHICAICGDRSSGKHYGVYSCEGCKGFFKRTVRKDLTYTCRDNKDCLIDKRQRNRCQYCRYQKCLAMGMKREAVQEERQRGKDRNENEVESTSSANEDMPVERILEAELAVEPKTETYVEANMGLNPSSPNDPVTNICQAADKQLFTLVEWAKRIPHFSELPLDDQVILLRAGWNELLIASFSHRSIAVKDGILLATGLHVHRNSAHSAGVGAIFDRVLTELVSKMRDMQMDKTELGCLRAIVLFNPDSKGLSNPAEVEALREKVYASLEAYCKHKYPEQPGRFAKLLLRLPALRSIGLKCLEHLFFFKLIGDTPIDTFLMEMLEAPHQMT
Sequence of hNurr1_RXRαFL (NURR1/RXRα heterodimer) (P43354 328-598): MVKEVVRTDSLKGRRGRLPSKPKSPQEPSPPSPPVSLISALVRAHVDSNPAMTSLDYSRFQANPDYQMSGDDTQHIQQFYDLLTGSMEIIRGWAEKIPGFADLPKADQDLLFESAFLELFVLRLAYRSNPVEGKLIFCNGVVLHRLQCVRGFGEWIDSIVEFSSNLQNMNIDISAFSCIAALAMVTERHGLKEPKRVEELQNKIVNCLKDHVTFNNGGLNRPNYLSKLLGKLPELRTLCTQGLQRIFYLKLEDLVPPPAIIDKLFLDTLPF
Sequence of hNurr1_RXRγFL (NURR1/RXRγ heterodimer) (P43354 328-598): as above
Sequence of hNurr1_RXRγFL (NURR1/RXRγ heterodimer) (P48443 whole entry, the tested form may be a part): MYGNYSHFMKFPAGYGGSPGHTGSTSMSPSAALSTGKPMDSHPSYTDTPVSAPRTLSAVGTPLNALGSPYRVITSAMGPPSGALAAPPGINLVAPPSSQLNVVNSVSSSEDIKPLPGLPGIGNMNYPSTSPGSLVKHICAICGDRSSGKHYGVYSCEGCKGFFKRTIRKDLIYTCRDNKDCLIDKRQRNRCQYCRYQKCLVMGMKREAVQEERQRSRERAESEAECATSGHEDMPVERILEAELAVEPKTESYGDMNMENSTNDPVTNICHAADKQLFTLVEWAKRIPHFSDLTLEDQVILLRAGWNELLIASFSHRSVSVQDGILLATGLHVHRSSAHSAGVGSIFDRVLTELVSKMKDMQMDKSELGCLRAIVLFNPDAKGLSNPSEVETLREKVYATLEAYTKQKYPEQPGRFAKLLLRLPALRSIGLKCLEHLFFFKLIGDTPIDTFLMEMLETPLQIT

`O=C(O)c1ccc(F)c(Cc2cc3cc(C(F)(F)F)ccc3n2S(=O)(=O)c2ccc3c(c2)OCCO3)c1` [Example 214, 3-[[1-[(2,3-dihydro-benzo[1,4]dioxin-6-yl)sulfonyl]-5-trifluoromethyl-1H-indol-2-yl]methyl]-4-fluorobenzoic acid]: in assay [1], the Emax came to 55% and the response was half-maximal at 804 nM (EC50). In assay [2], the Emax was determined as 75% and the 50% effective concentration (EC50) amounted to 681 nM.

Turning to `CC(C)(C)c1cccc(S(=O)(=O)n2c(Cc3ccc(C(=O)O)cn3)cc3cc(C(F)(F)F)ccc32)c1` [Example 66], in assay [1], the Emax is 79% and the response was half-maximal at 110 nM (EC50). In addition, in assay [2], the Emax turned out to be 80% and the half-maximal effective concentration (EC50) was found to be 71 nM.

Turning to `O=C(O)c1ccc(Cc2cc3cc(Cl)ccc3n2S(=O)(=O)c2ccc(-c3ccccc3)cc2)cc1` [Example 151, 4-[[1-[biphenyl-4-sulfonyl]-5-(chloro)-1H-indol-2-yl]methyl]benzoic acid], the Emax in assay [1] was 17%; in assay [2], 80%. Besides, the 50% effective concentration (EC50) in assay [1] was over 10000 nM; in assay [2], 427 nM.

Turning to `COc1cc(Cc2cc3cc(Cl)ccc3n2S(=O)(=O)c2ccc(C(C)C)cc2)ccc1C(=O)O` [Example 98, 4-[[5-chloro-1-[[4-(1-methylethyl)phenyl]sulfonyl]-1H-indol-2-yl]methyl]-2-methoxybenzoic acid], in assay [1], the Emax turned out to be 8% and the EC50 was over 10000 nM. In addition, in assay [2], the Emax was 64% and the 50% effective concentration (EC50) was determined as 2120 nM.

As to `CCCc1ccc(S(=O)(=O)n2c(Cc3ccc(C(=O)O)cc3)cc3cc(C(F)(F)F)ccc32)cc1` [Example 139, 4-[[1-[4-propyl-phenylsulfonyl]-5-(trifluoromethyl)-1H-indol-2-yl]methyl]benzoic acid], in assay [1], the Emax was determined as 43% and the EC50 was 344 nM. For the same molecule, in assay [2], the Emax was 46% and the EC50 came to 202 nM.

In the case of `COc1cccc(S(=O)(=O)n2c(Cc3ccc(C(=O)O)cc3)cc3cc(C(F)(F)F)ccc32)c1` [Example 13, 4-[[1-[(3-methoxyphenyl)sulfonyl]-5-(trifluoromethyl)-1H-indol-2-yl]methyl]benzoic acid], the Emax in assay [1] was 36%; in assay [2], 69%. For the same molecule, the results for the concentration for a half-maximal effect (EC50) in assay [1] and in assay [2] were 528 nM and 207 nM, respectively.

On to `COc1ccc(S(=O)(=O)n2c(Cc3ccc(C(=O)O)cc3)cc3cc(C(F)(F)F)ccc32)cn1` [Example 120, 4-[[1-[(6-methoxy-3-pyridinyl)sulfonyl]-5-(trifluoromethyl)-1H-indol-2-yl]methyl]benzoic acid], for which, in assay [1], the Emax came to 49% and the EC50 stood at 661 nM. Also, in assay [2], the Emax came out at 68% and the midpoint of the response, the EC50, lay at 202 nM.

Regarding `CN1CCOc2ccc(S(=O)(=O)n3c(Cc4ccc(F)c(C(=O)O)c4)cc4cc(C(F)(F)F)ccc43)cc21` [Example 212, 3-[[1-[[4-methyl-3,4-dihydro-2H-benzo[1,4]oxazin-6-yl]-sulfonyl]-5-trifluoromethyl-1H-indol-2-yl]methyl]-6-fluorobenzoic acid], the Emax in assay [1] was 81%; in assay [2], 80%. Further, the concentration giving a half-maximal response (EC50) turned out to be 40 nM in assay [1] and 19 nM in assay [2].

With `CCc1ccc(S(=O)(=O)n2c(Cc3ccc(C(=O)O)cc3)cc3cc(C(F)(F)F)ccc32)cc1` [Example 133, 4-[[1-[4-ethyl-phenylsulfonyl]-5-(trifluoromethyl)-1H-indol-2-yl]methyl]benzoic acid], the Emax in assay [1] was found to be 38%; in assay [2], 49%. Also, the EC50 in assay [1] is 304 nM; in assay [2] it was 177 nM.

On to `CC(C)(C)c1ccc(S(=O)(=O)n2c(Cc3ccc(C(=O)O)cc3)cc3cc(Cl)ccc32)cc1` [Example 155, 4-[[1-[4-tert-butyl-phenylsulfonyl]-5-(chloro)-1H-indol-2-yl]methyl]benzoic acid], for which, in assay [1], the Emax was determined as 59% and it took 468 nM to reach a half-maximal effect (EC50). In assay [2], the Emax was 69% and the response was half-maximal at 262 nM (EC50).

In the case of `CC1(C)COc2ccc(S(=O)(=O)n3c(Cc4ccc(C(=O)O)cc4)cc4cc(Cl)ccc43)cc21` [Example 183], the concentration for a half-maximal effect (EC50) in assay [1] stood at 95 nM; in assay [2], 47 nM. In addition, the “hNurr1_RXRγFL Eff (%)” value in assay [1] (setting [3]) is given as 91%. For the same molecule, the “hNurr1_RXRαFL Eff (%)” value in assay [2] (setting [3]) came to 80%.

With `Cc1c(Cc2ccc(C(=O)O)cc2)n(S(=O)(=O)c2cccc(C(C)(C)C)c2)c2ccc(C(F)(F)F)cc12` [Example 189, 4-[[1-[[3-(1,1-dimethylethyl)phenyl]sulfonyl]-3-methyl-5-(trifluoromethyl)-1H-indol-2-yl]methyl]-benzoic acid], in assay [1], the Emax came out at 90% and a half-maximal effect (EC50) was put at 263 nM. Besides, in assay [2], the Emax turned out to be 83% and the concentration for a half-maximal effect (EC50) is 120 nM.

`CN1C(=O)COc2ccc(S(=O)(=O)n3c(Cc4ccc(C(=O)O)cc4)cc4cc(C(F)(F)F)ccc43)cc21` [Example 125, 4-[[1-[4-methyl-3-oxo-3,4-dihydro-2H-benzo[1,4]oxazine-6-sulfonyl]-5-(trifluoromethyl)-1H-indol-2-yl]methyl]benzoic acid]: the Emax in assay [1] stood at 101%; in assay [2] it was 61%. The EC50 in assay [1] was found to be 724 nM; in assay [2] it was 808 nM.

Regarding `Cn1nccc1-c1cccc(S(=O)(=O)n2c(Cc3ccc(C(=O)O)cc3)cc3cc(C(F)(F)F)ccc32)c1` [Example 20, 4-[[1-[[3-(1-methyl-1H-pyrazol-5-yl)phenyl]sulfonyl]-5-(trifluoromethyl)-1H-indol-2-yl]methyl]benzoic acid], in assay [1], the Emax is 44% and a half-maximal effect (EC50) was put at 617 nM. In addition, in assay [2], the Emax was found to be 54% and the EC50 is 295 nM.

With `CC(C)c1cccc(S(=O)(=O)n2c(Cc3ccc(C(=O)O)cc3)cc3cc(Cl)ccc32)c1` [Example 51, 4-[[5-chloro-1-[[3-(1-methylethyl)phenyl]sulfonyl]-1H-indol-2-yl]-methyl]benzoic acid], in assay [1], the Emax came to 69% and the EC50 came out at 1130 nM. Moreover, in assay [2], the Emax worked out at 74% and the response was half-maximal at 801 nM (EC50).

In the case of `CC(C)(C)c1cccc(S(=O)(=O)n2c(Cc3ccc(C4=NOC(=O)C4)cc3)cc3cc(C(F)(F)F)ccc32)c1` [Example 228, 3-[4-[[1-[[3-(1,1-dimethylethyl)phenyl]sulfonyl]-5-(trifluoromethyl)-1H-indol-2-yl]methyl]-phenyl]-4H-isoxazol-5-one], in assay [1], the Emax came out at 63% and a half-maximal response (EC50) required 335 nM. Moreover, in assay [2], the Emax was 90% and the EC50 amounted to 113 nM.

As to `O=C(O)c1ccc(Cc2cc3cc(Cl)ccc3n2S(=O)(=O)c2ccc3c(c2)OCCO3)cc1` [Example 157, 4-[[1-[2,3-dihydro-benzo[1,4]dioxin-6-sulfonyl]-5-(chloro)-1H-indol-2-yl]methyl]benzoic acid], the Emax in assay [1] worked out at 64%; in assay [2], 67%. Moreover, the half-maximal effective concentration (EC50) came to 838 nM in assay [1] and 267 nM in assay [2].

For `O=C(O)c1ccc(Cc2cc3cc(C(F)(F)F)ccc3n2S(=O)(=O)c2ccc(OC(F)(F)F)cc2)cc1` [Example 142, 4-[[1-[4-trifluoromethoxy-phenylsulfonyl]-5-(trifluoromethyl)-1H-indol-2-yl]methyl]benzoic acid], in assay [1], the Emax worked out at 19% and it took 816 nM to reach a half-maximal effect (EC50). In assay [2], the Emax is 38% and the EC50 stood at 459 nM.

In the case of `CC(C)(C)c1cccc(S(=O)(=O)n2c(Cc3ccc(C(=O)NS(=O)(=O)c4ccccc4)cc3)cc3cc(C(F)(F)F)ccc32)c1` [Example 229, N-[4-[[1-[[3-(1,1-dimethylethyl)phenyl]sulfonyl]-5-(trifluoromethyl)-1H-indol-2-yl]methyl]benzoyl]-benzenesulfonamide], the values for the Emax in assay [1] and in assay [2] were 70% and 60%, respectively. Further, the EC50 was found to be 303 nM in assay [1] and 157 nM in assay [2].

As for `O=C(O)c1ccc(Cc2cc3cc(C(F)(F)F)ccc3n2S(=O)(=O)c2ccc(-c3ccccc3)s2)cc1` [Example 14, 4-[[1-[(5-phenyl-2-thienyl)sulfonyl]-5-(trifluoromethyl)-1H-indol-2-yl]methyl]benzoic acid], in assay [1], the Emax came out at 30% and the EC50 was 778 nM. Also, in assay [2], the Emax amounted to 69% and the EC50 came to 396 nM.

Consider `CN1CCOc2ccc(S(=O)(=O)n3c(Cc4ccc(C(=O)O)s4)cc4cc(C(F)(F)F)ccc43)cc21` [Example 73, 5-[[1-[[4-methyl-3,4-dihydro-2H-benzo[1,4]oxazin-6-yl]-sulfonyl]-5-trifluoromethyl-1H-indol-2-yl]methyl]-thiophene-2-carboxylic acid], for which the figures for the Emax in assay [1] and in assay [2] were 89% and 94%, respectively. The values for the EC50 in assay [1] and in assay [2] were 66 nM and 37 nM, respectively.

As for `O=C(O)c1ccc(Cc2cc3cc(C(F)(F)F)ccc3n2S(=O)(=O)c2ccc(F)cc2)cc1` [Example 137, 4-[[1-[4-fluoro-phenylsulfonyl]-5-(trifluoromethyl)-1H-indol-2-yl]methyl]benzoic acid], in assay [1], the Emax was found to be 18% and it took 730 nM to reach a half-maximal effect (EC50). In addition, in assay [2], the Emax came out at 37% and it took 529 nM to reach a half-maximal effect (EC50).

On to `CC(C)(C)c1cccc(S(=O)(=O)n2c(C(=O)c3ccc(C(=O)O)cc3)cc3cc(C(F)(F)F)ccc32)c1` [Example 219], for which, in assay [1], the Emax was determined as 32% and the EC50 was 3200 nM. In assay [2], the Emax stood at 57% and the EC50 was 1130 nM.
